#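 Exposure lasted 48 hours, with cells grown in 96-well plates and compounds tested at five concentrations. GI50 marks 50% less growth. TGI marks complete inhibition of growth.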
# Experiments:
# Experiment in all cases: NCI tumour cell line growth inhibition, 48 h
# [1] = system: IGROV1 ovarian
# [2] = system: U251 CNS
# [3] = system: SK-OV-3 ovarian
# [4] = system: SF-268 CNS
# [5] = system: UACC-62 melanoma
# [6] = system: KM12 colon
# [7] = system: UACC-257 melanoma
# [8] = system: MALME-3M melanoma
# [9] = system: EKVX NSCLC
# [10] = system: NCI-H226 lung
Structure (SMILES),TGI [1] [µM],TGI [2] [µM],TGI [3] [µM],TGI [4] [µM],TGI [5] [µM],TGI [6] [µM],TGI [7] [µM],TGI [8] [µM],TGI [9] [µM],TGI [10] [µM],GI50 [1] [µM],GI50 [2] [µM],GI50 [10] [µM],GI50 [3] [µM],GI50 [4] [µM],GI50 [5] [µM],GI50 [7] [µM],GI50 [8] [µM],GI50 [9] [µM],GI50 [6] [µM]
O=C1c2ccccc2C(=O)C1(O)c1c[nH]c2ccccc12,> 100,> 100,> 100,> 100,> 100,> 100,> 100,> 100,> 100,–,–,–,–,–,–,–,–,–,–,–
CCCCNC1CCCCC[C@H]1O (some centres undefined),> 100,> 100,> 100,> 100,> 100,> 100,> 100,–,> 100,> 100,–,–,–,–,–,–,–,–,–,–
Cc1nnc(NS(=O)(=O)c2ccc(N=Nc3cc(N=Nc4ccc(S(=O)(=O)Nc5nnc(C)s5)cc4)c4c(NC(=O)C(Cl)Cl)cccc4c3OC(=O)C(Cl)Cl)cc2)s1 (tested in a mixture with another compound),97.5,> 100,–,> 100,89.1,> 100,> 100,65.3,89.2,–,–,–,–,–,–,–,–,–,–,–
Cc1[nH]c(=O)nc2[nH][nH]c(=O)c12,> 100,> 100,> 100,> 100,> 100,> 100,–,> 100,> 100,> 100,–,–,–,–,–,–,–,–,–,–
CCOC(=O)CCC(=O)C1c2cccc(O)c2C(=O)c2c(O)cc(C)cc21 (centres undefined),0.846,0.65,2.01,–,1.48,0.563,2.8,2.65,3.91,1.75,–,–,–,–,–,–,–,–,–,–
OCC1OC(n2cnc3c2NC=NC[C@H]3O)C(Cl)C1O (some centres undefined),> 100,> 100,–,> 100,> 100,> 100,> 100,> 100,> 100,–,–,–,–,–,–,–,–,–,–,–
C=C(C)[C@@H]1CC[C@]2(CO)CC[C@]3(C)[C@H](CC[C@@H]4[C@@]5(C)C=C(C#N)C(=O)C(C)(C)[C@@H]5CC[C@]43C)[C@@H]12,4.65,2.8,6.12,4.78,2.44,–,3.04,3.82,4.61,5.49,0.684,1.36,2.39,2.72,1.46,0.72,1.29,1.4,1.63,–
COc1ccc(-c2cc(-c3cc(C)cc(Br)c3O)no2)cc1,> 100,33.5,–,22.8,38.9,> 100,> 100,–,78.3,42.4,–,–,–,–,–,–,–,–,–,–
COc1cc2ncnc(-n3ncc4cc(NC(=O)Nc5ccccc5)ccc43)c2cc1OC,4.62,3.23,4.6,11.2,6.27,5.27,5.13,–,7.3,4.06,0.427,1.27,1.07,0.42,1.55,1.23,2.32,–,1.59,0.207
O=C(N/N=C/c1cc(Br)ccc1O)N/N=C/c1cc(Br)ccc1O,–,> 100,> 100,> 100,–,> 100,> 100,> 100,> 100,9.64,–,–,–,–,–,–,–,–,–,–
COC(=O)Nc1nc2ccc(C3(c4ccc(F)cc4)OCCO3)cc2[nH]1,> 100,> 100,> 100,> 100,> 100,> 100,> 100,–,–,> 94,1.29,0.398,2.15,0.587,2.07,0.619,1.28,–,–,0.352
Cc1ccc(N=C/C=C(\Nc2ccc(C)cc2)c2ccc(Cl)cc2)cc1,–,50.1,> 100,40.2,39.8,46.7,38.8,48.4,36.2,–,–,7.39,–,21,13.4,7.31,15.8,9.27,14,5.36
CCc1nc2cc(F)c(/C=C/C(=O)NO)cc2c(=O)n1CCc1ccccc1,–,0.891,0.787,10.1,0.699,15,0.72,0.907,15.7,7.36,–,0.277,0.371,0.263,0.355,0.235,0.216,0.216,0.387,0.412
CC12OC(C(=O)C13CC3)C1C(=O)c3ccc4c(ccc5ccccc54)c3C(=O)C12 (centres undefined),> 100,–,> 100,86.1,–,59.5,> 100,56.6,> 100,–,28.9,–,–,76.4,26.5,–,33.5,14.2,51.3,22.9
COC(=O)C12CC3CC(CC(C(=O)O)(C3)C1)C2,> 100,> 100,> 100,> 100,> 100,> 100,> 100,–,> 100,–,–,–,–,–,–,–,–,–,–,–
[N-]=[N+]=C1C(=O)NN=C1c1ccccc1,> 100,> 100,> 100,> 100,–,> 100,> 100,> 100,> 100,> 100,–,–,–,–,–,–,–,–,–,–
c1ccc(C2N3CCCCC3[C@@H]3c4[nH]c5ccccc5c4CCN23)nc1 (some centres undefined),> 100,> 100,> 100,> 100,> 100,–,> 100,–,> 100,–,–,–,–,–,–,–,–,–,–,–
CCOC(=O)N[C@@H]1C(CC(=O)OC)O[C@H]2OC(C)(C)O[C@H]21 (some centres undefined),> 100,> 100,> 100,> 100,> 100,> 100,> 100,> 100,–,> 100,–,–,–,–,–,–,–,–,–,–
Cc1cc(NC(=S)SCc2ccc(F)cc2)c([N+](=O)[O-])cc1C,–,57.5,> 100,> 100,31.3,44.6,53.6,77.7,91.3,38.7,–,–,–,–,–,–,–,–,–,–
CCCC1=C(CC)C(C(=O)Nc2c(C)cccc2C)=NC(S)N1 (centres undefined),> 100,> 100,–,> 100,> 100,> 100,> 100,> 100,> 100,> 100,–,–,–,–,–,–,–,–,–,–
